Measurements as given in ChEMBL document CHEMBL1132725, “Evaluation of new L-thiocitrulline derivatives as inhibitors of nitric oxide synthase” (Bioorg Med Chem Lett, 2000).
pKi: −log10 of the molar value.

Key:
[1] = molecular target: T1, Nitric oxide synthase 3 (Bos taurus) (UniProt P29473); experiment: Compound was tested for the percent inhibition of nitric oxide synthase (e) using [14C]L-citrulline as radioligand.; details: concentration not given here
T1 sequence (whole entry): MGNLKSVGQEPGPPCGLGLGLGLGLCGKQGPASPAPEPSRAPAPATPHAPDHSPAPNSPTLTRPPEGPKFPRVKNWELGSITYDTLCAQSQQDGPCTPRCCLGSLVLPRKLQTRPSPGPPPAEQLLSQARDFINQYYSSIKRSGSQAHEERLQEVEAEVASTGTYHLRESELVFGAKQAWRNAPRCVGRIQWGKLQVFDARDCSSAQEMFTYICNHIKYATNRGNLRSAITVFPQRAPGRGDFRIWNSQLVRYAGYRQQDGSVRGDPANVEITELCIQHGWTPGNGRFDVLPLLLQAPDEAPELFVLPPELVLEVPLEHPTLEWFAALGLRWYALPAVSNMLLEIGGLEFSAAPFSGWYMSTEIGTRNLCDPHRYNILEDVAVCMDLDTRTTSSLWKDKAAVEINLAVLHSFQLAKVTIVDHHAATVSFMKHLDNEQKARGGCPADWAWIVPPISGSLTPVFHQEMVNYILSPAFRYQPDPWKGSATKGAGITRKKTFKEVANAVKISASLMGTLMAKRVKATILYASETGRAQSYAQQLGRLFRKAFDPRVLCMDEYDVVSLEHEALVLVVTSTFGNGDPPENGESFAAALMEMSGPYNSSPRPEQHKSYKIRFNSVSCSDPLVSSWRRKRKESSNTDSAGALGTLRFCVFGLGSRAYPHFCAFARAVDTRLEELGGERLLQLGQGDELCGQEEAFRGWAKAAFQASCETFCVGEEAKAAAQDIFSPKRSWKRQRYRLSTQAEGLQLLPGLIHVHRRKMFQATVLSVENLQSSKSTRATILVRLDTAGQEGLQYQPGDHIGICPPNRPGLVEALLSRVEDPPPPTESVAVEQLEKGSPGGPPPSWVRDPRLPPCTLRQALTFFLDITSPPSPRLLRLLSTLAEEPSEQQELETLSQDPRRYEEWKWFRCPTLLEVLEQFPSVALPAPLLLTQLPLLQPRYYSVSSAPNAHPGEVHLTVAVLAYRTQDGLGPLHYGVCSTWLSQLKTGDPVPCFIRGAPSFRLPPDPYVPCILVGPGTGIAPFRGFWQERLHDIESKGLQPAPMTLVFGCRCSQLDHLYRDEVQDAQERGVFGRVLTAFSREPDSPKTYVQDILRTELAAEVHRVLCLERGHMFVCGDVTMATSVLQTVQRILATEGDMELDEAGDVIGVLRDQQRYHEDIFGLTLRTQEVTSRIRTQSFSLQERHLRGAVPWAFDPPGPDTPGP

[2] = molecular target: T2, Nitric oxide synthase, inducible (Mus musculus) (UniProt P29477); experiment: Compound was tested for the percent inhibition of nitric oxide synthase (i) using [14C]L-citrulline as radioligand.; details: concentration not given here
T2 sequence (whole entry): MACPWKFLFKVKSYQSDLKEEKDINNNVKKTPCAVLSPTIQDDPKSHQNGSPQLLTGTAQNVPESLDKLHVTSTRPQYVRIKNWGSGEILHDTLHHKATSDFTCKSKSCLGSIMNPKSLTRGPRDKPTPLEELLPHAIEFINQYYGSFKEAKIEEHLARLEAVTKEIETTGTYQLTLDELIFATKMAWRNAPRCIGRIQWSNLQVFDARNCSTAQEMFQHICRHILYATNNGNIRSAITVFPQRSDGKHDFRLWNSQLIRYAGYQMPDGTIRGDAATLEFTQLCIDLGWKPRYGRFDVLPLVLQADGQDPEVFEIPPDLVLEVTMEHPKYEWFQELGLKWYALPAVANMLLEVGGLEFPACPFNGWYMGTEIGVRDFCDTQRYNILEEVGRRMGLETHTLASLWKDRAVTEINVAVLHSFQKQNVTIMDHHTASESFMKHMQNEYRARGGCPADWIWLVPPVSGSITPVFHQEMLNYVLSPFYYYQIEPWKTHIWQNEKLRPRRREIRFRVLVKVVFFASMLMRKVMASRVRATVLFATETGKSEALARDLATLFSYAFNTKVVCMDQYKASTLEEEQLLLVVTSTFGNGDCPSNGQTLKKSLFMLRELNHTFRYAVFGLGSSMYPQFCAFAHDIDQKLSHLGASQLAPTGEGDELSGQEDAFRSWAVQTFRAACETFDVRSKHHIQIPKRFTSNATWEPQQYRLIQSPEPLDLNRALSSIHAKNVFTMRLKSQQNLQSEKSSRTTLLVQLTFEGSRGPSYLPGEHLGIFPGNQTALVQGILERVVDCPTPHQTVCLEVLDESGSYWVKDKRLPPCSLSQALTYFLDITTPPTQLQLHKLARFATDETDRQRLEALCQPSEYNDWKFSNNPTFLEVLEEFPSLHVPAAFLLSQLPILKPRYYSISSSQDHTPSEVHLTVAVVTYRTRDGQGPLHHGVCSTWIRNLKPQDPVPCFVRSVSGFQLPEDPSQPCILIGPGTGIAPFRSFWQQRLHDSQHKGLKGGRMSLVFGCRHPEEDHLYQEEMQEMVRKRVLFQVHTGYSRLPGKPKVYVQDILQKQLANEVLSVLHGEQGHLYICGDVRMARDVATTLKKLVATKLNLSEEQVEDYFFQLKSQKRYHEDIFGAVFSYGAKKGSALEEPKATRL

[3] = molecular target: Nitric oxide synthase 1 (Rattus norvegicus) (UniProt P29476); experiment: Compound was tested for the percent inhibition of nitric oxide synthase (n) using [14C]L-citrulline as radioligand.; details: concentration not given here
Nitric oxide synthase 1 (Rattus norvegicus), sequence (P29476 whole entry): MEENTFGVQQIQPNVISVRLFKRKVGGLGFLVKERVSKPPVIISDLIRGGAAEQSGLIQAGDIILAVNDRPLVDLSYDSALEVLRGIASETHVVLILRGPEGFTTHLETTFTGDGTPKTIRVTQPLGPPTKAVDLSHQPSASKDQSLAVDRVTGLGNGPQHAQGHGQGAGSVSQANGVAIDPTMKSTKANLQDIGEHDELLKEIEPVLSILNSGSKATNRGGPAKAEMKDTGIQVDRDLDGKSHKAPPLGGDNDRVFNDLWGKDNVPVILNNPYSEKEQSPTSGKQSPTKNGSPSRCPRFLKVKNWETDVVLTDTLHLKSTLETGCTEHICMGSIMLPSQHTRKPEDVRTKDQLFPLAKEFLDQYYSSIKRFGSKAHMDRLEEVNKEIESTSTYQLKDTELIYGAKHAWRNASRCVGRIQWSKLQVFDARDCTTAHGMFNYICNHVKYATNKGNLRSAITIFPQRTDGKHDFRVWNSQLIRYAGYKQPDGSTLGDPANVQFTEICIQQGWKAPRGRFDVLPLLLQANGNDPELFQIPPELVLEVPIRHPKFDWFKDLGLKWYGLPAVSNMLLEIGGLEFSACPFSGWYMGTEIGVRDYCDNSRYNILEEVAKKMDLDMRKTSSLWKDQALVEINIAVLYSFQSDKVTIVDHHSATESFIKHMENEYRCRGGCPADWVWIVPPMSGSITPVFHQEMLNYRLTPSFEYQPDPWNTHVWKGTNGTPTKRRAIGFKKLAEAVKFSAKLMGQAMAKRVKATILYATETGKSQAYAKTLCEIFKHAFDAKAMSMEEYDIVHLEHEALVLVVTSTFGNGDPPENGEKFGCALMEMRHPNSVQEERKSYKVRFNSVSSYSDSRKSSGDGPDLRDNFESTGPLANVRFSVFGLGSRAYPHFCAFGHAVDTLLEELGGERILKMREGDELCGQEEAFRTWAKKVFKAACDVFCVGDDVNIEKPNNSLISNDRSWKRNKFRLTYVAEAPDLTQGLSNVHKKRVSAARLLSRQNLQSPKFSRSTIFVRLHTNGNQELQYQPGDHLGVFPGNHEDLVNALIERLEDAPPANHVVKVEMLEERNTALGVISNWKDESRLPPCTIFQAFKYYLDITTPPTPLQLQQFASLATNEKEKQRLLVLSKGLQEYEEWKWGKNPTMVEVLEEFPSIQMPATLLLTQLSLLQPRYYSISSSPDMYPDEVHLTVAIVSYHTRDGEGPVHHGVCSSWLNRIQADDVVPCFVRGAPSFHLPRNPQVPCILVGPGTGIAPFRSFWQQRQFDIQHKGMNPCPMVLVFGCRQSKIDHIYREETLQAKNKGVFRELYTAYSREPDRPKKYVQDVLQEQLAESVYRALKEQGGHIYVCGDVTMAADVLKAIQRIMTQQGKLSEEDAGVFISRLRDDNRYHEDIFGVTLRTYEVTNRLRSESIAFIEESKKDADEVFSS

[4] = molecular target: T3, Nitric oxide synthase, inducible (Mus musculus, UniProt P29477); experiment: Compound was tested for the competitive inhibition of nitric oxide synthase (i) using [14C]L-citrulline as radioligand. value ranges from 3.6-9 uM
T3 sequence (P29477 whole entry): T2 sequence (whole entry)

Nitric oxide synthase 1 = Nitric oxide synthase 1 (Rattus norvegicus, UniProt P29476); experiment: Compound was tested for the competitive inhibition of nitric oxide synthase (n) using [14C]L-citrulline as radioligand.; value ranges from 0.06-2 uM
Nitric oxide synthase 1, sequence (P29476 whole entry): as above

inhibition [1] [%]	inhibition [2] [%]	inhibition [3] [%]	pKi [4]	pKi (Nitric oxide synthase 1)	SMILES
25	54	27			CS/C(S)=N/CCC[C@H](N)C(=O)O
> 99	> 99	> 99	5.44	7.22	N/C(S)=N/CCC[C@H](N)C(=O)O
46	56	39			CSC(=NCCC[C@H](N)C(=O)O)SC

SMILES	inhibition [1] [%]	inhibition [2] [%]	inhibition [3] [%]	pKi [4]	pKi (Nitric oxide synthase 1)
CCOP(=S)(NCCC[C@H](N)C(=O)O)OCC		< 10			
